# Experimental data reported in patent publication US20080272062A1, “BROAD SPECTRUM ANTIMICROBIAL PURIFICATION DEVICES AND METHODS FOR PURIFYING FLUIDS” (WATER VISIONS INTERNATIONAL, INC., priority 2006, published 2008).
# Structures can show the parent of a compound that is named as a salt. Where two headings read alike, the source gives them in different places. Marks after values point to notes of the source that are not given here.
# Tests used:
# E. coli/bacteria = experiment: Pumped flow through chlorhexidine dihydrate treatment device, Aerobic Plate Count; format: cell-based
# Protocol: Dechlorinated city of Atlanta tap water was inoculated with a culture of E. coli/bacteria and pumped through a 0.25 inch chlorhexidine dihvdrate treatment device at a rate of 1 to 2 L/min up to 80 L. Bacterial recovery was determined by Aerobic Plate Count and is shown in Table 9.
# Accordingly, the reaction of chlorhexidine dihydrate appears to be of a “catalytic” nature. Conversely, typical applications involving soluble chlorhexidine gluconate result in its consumption and approach a second-order reaction. The same is true for most other known antimicrobial agents. Thus, chlorhexidine dehydrate is particularly suitable for use as a purification material.
# B. subtilis = experiment: Gravity flow of inoculum through chlorhexidine dihydrate particle bed; format: cell-based
# Protocol: (§1) Columns having a length of 30.48 cm and diameter of 0.75 in were packed with particle beds comprising chlorhexidine dihydrate having lengths of 1.9 cm, 2.5 cm, and 4.1 cm. A 40 mL mixture of inocculum (comprising 35 million B. subtilis, 91 million E. coli, 130 million R. terrigena, and 100 million A. niger) and water was passed by gravity through the chlorhexidine dihydrate particle bed.
# E. coli [1] = experiment: as above; format: cell-based
# Protocol: as §1
# A. niger = experiment: as above; format: cell-based
# Protocol: as §1
# R. terrigena = experiment: as above; format: cell-based
# Protocol: as §1
# [2] = Solubility in solvents (aliquot dried and weighed); format: physicochemical; conditions: 3 days
# [3] = Temperature dependence of solubility in water; format: physicochemical
# Protocol: The effect of temperature on the solubility of chlorhexidine dihydrate in water was determined by placing a sample of chlorhexidine dihydrate in a 100 mL round bottom flask with 50 mL of deionized water. The round bottom flask contained a stir bar and was placed in an oil bath on a hot plate. The solution was gradually warmed. Aliquots were taken every 15° C. The aliquot was taken from the solution using of a syringe fitted with a micropore filter (Whatman fiberglass filter GF/D, pore size 2.7). The filter separated the solution from the suspended material. The solution was dried in a weigh boat at 60° C. overnight.
# [4] = Surface energy, contact angle on dip-coated glass slides; format: physicochemical; parameters: unit not given here
# Protocol: Glass slides were cleaned in hot chromic acid, deionized water and blown dry. Two slides were treated with hexamethyldisilazane to lower their surface energy. Solutions of chlorhexidine dihydrate in chloroform/methanol and chlorhexidine in methylene chloride/methanol were prepared. The slides were coated using a dip-coater with a dipping speed of 2.8 mm/min. […] The untreated slides produced very uniform thin films.
# Porosity to water = format: physicochemical; conditions: water head 25 cm, cross-sectional area 2.775 cm^2
# Protocol: To measure the porosity of the materials to water, samples were placed in a ¾″ inner diameter plastic tube fitted with a plug with a hole in the middle. A wire mesh, on top of the plug, prevented the powder from passing through the plug. Deionized water was passed through the sample until the material was sufficiently packed and a second wire mesh was positioned on top of the sample. Water was added to the tube to a height of 25 centimeters above the plug of material. This height was maintained to plus or minus one cm in order to maintain a constant pressure. The porosity was calculated by calculating the volumetric flow rate (volume/time), multiplying by the cross-sectional area (2.775 cm^2), and dividing by the thickness. Accordingly, the rate should increase proportionally with increases in the cross section and decreases in the thickness.
# [5] = Solubility in solvents (aliquot dried and weighed); format: physicochemical; conditions: for Solubility: 7 days
# Protocol: A sample of material was placed in a small vial with a few mL of solvent. The solution was stirred by shaking for several hours and then allowed to sit for a week equilibrating.
# A 1 mL aliquot drawn from the solution using an Eppendorf pipette was placed in a weigh boat and dried in an oven. The dried sample was weighed. Measurements of the alcohol and water solvents were taken after three hours of mixing and again after a week. At the three hour measurement, it was necessary to centrifuge the sample in order to separate the solvent solution from the particulate matter.
# all microorganisms = experiment: Treatment of influent contaminated water stream with particle bed of insoluble chlorhexidine dihydrate; format: cell-based
# Excerpt: The composition of chlorhexidine dihydrate produced mortality in all microorganisms with a minimum or greater mean 10-log reduction upon treatment of an influent contaminated water stream with a particle bed of insoluble chlorhexidine dihydrate. While it is known that soluble chlorhexidine salts are bactericidal for some microorganisms, the purification materials embodied herein require insoluble antimicrobial agents. Thus, the previously known chlorhexidine salts are unacceptable for use in the purification materials embodied herein.
# [6] = Density by suspension in binary solvent system; format: physicochemical; conditions: melted glassy chunk, chlorobenzene/carbon tetrachloride
# Excerpt: Chlorhexidine and chlorhexidine dihydrate were melted on a glass slide heated on a hot plate. These glassy materials easily fractured into large chunks. One of these chunks from each sample was used to determine the density of the material. Using a binary solvent system consisting of chlorobenzene (density 1.102 g/cc) and carbon tetrachloride (density […]), the chunk of material was suspended. The solution was adjusted until the particle remained hovering in mid solution without floating to the surface or sinking to the bottom. The resulting solution was weighed in a 10 mL volumetric flask and the density was calculated. The procedure was repeated at least 4 times for each sample.
# Dry bulk density = format: physicochemical; conditions: packed in 50 ml graduated cylinder, vortex agitated
# Protocol: The materials were loosely packed into tared 50 ml graduated cylinders and agitated with a vortex mixer to further pack the materials in the cylinders. The weight of the material was determined and then divided by the volume of material to determine the bulk density. The larger value for the dihydrate is due to the significant amorphous fraction of the material that is not present in the pure chlorhexidine. The amorphous particles are smaller than crystals and fill the voids between crystals allowing for a greater packing density of particles, […]
# [7] = cited from earlier work
# E. coli [8] = experiment: Gravity flow of inoculum through chlorhexidine base particle bed; format: cell-based; conditions: 40 mL, 6.4 million E. coli, 54 minutes
# Protocol: A 40 mL mixture of inocculum comprising 6.4 million E. coli and water was passed by gravity flow through a chlorhexidine base particle bed. It took 54 minutes for the fluid to pass through the particle bed.
# [9] = bed 2.5 cm, flow time 2.0 minutes
# [10] = bed 4.1 cm, flow time 1.5 hours
# [11] = Water/Ethanol (50:50, 30.0 dyne/cm)
# [12] = Water/Ethanol (70:30, 36.1 dyne/cm)
# [13] = Water/Ethanol (90:10, 51.3 dyne/cm)
smiles,measurement,setting,value
"N=C(NCCCCCCNC(=N)NC(=N)Nc1ccc(Cl)cc1)NC(=N)Nc1ccc(Cl)cc1.O.O [Chlorhexidine dihydrate, chlorhexidine dihydrate]",inactivation of E. coli,"E. coli/bacteria; 1 to 2 L/min up to 80 L, 0.25 inch thickness disc",100%
same,Total Aerobic Plate Count,"E. coli/bacteria; 20 L run through device, untreated 8.6 × 10^8, 1 to 2 L/min",10 # colonies/mL
same,Total Aerobic Plate Count,E. coli/bacteria; 40 L run through device,<10 # colonies/mL
same,Total Aerobic Plate Count,E. coli/bacteria; 60 L run through device,<10 # colonies/mL
same,Total Aerobic Plate Count,E. coli/bacteria; 80 L run through device,<10 # colonies/mL
same,% Reduction,"B. subtilis; bed 1.9 cm, flow time 1.0 hour",>99.997%
same,Effluent (1.9 cm),"B. subtilis; bed 1.9 cm, inoculum 35 × 10^6, flow time 1.0 hour",<1000
same,% Reduction,B. subtilis; [9],99.6%
same,Effluent (2.5 cm),"B. subtilis; bed 2.5 cm, inoculum 35 × 10^6, flow time 2.0 minutes",14 × 10^5
same,% Reduction,B. subtilis; [10],>99.997%
same,Effluent (4.1 cm),"B. subtilis; bed 4.1 cm, inoculum 35 × 10^6, flow time 1.5 hours",<1000
same,% Reduction,"E. coli [1]; bed 1.9 cm, flow time 1.0 hour",>99.999%
same,Effluent (1.9 cm),"E. coli [1]; bed 1.9 cm, inoculum 91 × 10^6, flow time 1.0 hour",<1000
same,% Reduction,E. coli [1]; [9],>99.999%
same,Effluent (2.5 cm),"E. coli [1]; bed 2.5 cm, inoculum 91 × 10^6, flow time 2.0 minutes",<1000
same,% Reduction,E. coli [1]; [10],>99.999%
same,Effluent (4.1 cm),"E. coli [1]; bed 4.1 cm, inoculum 91 × 10^6, flow time 1.5 hours",<1000
same,% Reduction,"A. niger; bed 1.9 cm, flow time 1.0 hour",>99.9%
same,Effluent (1.9 cm),"A. niger; bed 1.9 cm, inoculum 100 × 10^6, flow time 1.0 hour",<1000
same,% Reduction,A. niger; [9],99.2%
same,Effluent (2.5 cm),"A. niger; bed 2.5 cm, inoculum 100 × 10^6, flow time 2.0 minutes",8000
same,% Reduction,A. niger; [10],>99.9%
same,Effluent (4.1 cm),"A. niger; bed 4.1 cm, inoculum 100 × 10^6, flow time 1.5 hours",<1000
same,% Reduction,"R. terrigena; bed 1.9 cm, flow time 1.0 hour",>99.999%
same,Effluent (1.9 cm),"R. terrigena; bed 1.9 cm, inoculum 130 × 10^6, flow time 1.0 hour",<1000
same,% Reduction,R. terrigena; [9],>99.999%
same,Effluent (2.5 cm),"R. terrigena; bed 2.5 cm, inoculum 130 × 10^6, flow time 2.0 minutes",<1000
same,% Reduction,R. terrigena; [10],>99.999%
same,Effluent (4.1 cm),"R. terrigena; bed 4.1 cm, inoculum 130 × 10^6, flow time 1.5 hours",<1000
same,Solubility,[2]; Ethanol,1700 µg/mL
same,Solubility,[2]; Iso-propanol,900 µg/mL
same,Solubility,[2]; Methanol,3600 µg/mL
same,Solubility,[2]; Water,<500 µg/mL
same,Solubility in water,[3]; 30 ° C.,460 µg/mL
same,Solubility in water,[3]; 45 ° C.,740 µg/mL
same,Solubility in water,[3]; 60 ° C.,780 µg/mL
same,Solubility in water,[3]; 75 ° C.,920 µg/mL
same,Solubility in water,[3]; 90 ° C.,890 µg/mL
same,Solubility (in words),[3]; hot and cold water,very limited solubility
same,Mean Contact Angle,[4]; Water (72.2 dyne/cm),7.08
same,Mean Contact Angle,[4]; [11],0
same,Mean Contact Angle,[4]; [12],18.44
same,Mean Contact Angle,[4]; [13],13.08
same,Porosity,Porosity to water,7.55 mL cm^2/min/cm
same,Solubility,[5]; Chloroform,5600 µg/mL
same,Solubility,[5]; Ethanol,600 µg/mL
same,Solubility,[5]; Ethyl Acetate,10000 µg/mL
same,Solubility,[5]; Iso-propanol,400 µg/mL
same,Solubility,[5]; MIBK,21100 µg/mL
same,Solubility,[5]; Methanol,2800 µg/mL
same,Solubility,[5]; Methylene Chloride,5600 µg/mL
same,Solubility,[5]; Water,<400 µg/mL
same,Solubility (in words),"[5]; hot methanol, chloroform, methylene chloride, and ketones",appreciable solubility
same,mean log reduction (mortality in all microorganisms),all microorganisms,≥ 10 log
same,Density,[6],1.266 ± .001 g/cc
same,Bulk Density,Dry bulk density,0.70 g/cc
"[H]/N=C(\N/C(=N/[H])NCCCCCCNC(=N)NC(=N)Nc1ccc(Cl)cc1)Nc1ccc(Cl)cc1 [Chlorhexidine hydrochloride, chlorhexidine hydrochloride]",Bulk Density,Dry bulk density,0.15 g/cc
"[H]/N=C(\N/C(=N/[H])NCCCCCCNC(=N)NC(=N)Nc1ccc(Cl)cc1)Nc1ccc(Cl)cc1 [Chlorhexidine, N,N″Bis(4-chlorophenyl)-3,12-diimino-2,4,11,13-tetrazatetradecanediimideamide, reference compound]",Solubility,"[7]; reported by Block, Disinfection, Sterilization, and Preservation, 2001",0.0008%
same,Solubility,[7]; reported by Merck Index,0.08%
same,Mean Contact Angle,[4]; Water (72.2 dyne/cm),10.28
same,Mean Contact Angle,[4]; [11],0
same,Mean Contact Angle,[4]; [12],13.5
same,Mean Contact Angle,[4]; [13],15.3
same,Porosity,Porosity to water,3.60 mL cm^2/min/cm
same,reduction in E. coli,E. coli [8],greater than 99.999%
same,Density,[6],1.270 ± .001 g/cc
same,Bulk Density,Dry bulk density,0.64 g/cc
